Results published in BindingDB's records for doi:10.7270/Q2F18X40 (Nmmlsc, 2009).

What follows are compounds tested against Ras-related protein Rab-7a (Canis lupus familiaris, UniProt P18067) (assay: analogs blocking nucleotide binding to wildtype Rab7 – biochemical, oxadiazole analogs, multiplex bead flow cytometry, SAR follow-up (AID 2031)). Details: inactive by the depositor's call.
Chain of Ras-related protein Rab-7a (P18067 whole entry): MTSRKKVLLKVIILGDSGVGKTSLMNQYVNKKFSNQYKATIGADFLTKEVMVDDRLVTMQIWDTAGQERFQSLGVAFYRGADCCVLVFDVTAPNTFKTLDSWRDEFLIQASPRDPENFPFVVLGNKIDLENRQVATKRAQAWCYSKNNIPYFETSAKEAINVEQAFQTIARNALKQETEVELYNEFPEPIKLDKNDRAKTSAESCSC

Q: With `COc1cccc(-c2noc(CCC(=O)N3CCN(c4cc(C)ccc4C)CC3)n2)c1` as the compound, how does the EC50 read?
A: 3.43 µM

Q: With `Cc1ccc(C)c(N2CCN(C(=O)CCc3nc(-c4ccccc4C)no3)CC2)c1` as the compound, how does the EC50 read?
A: 5.46 µM

Q: With `COc1ccc(-c2noc(CCC(=O)N3CCN(c4cccc(Cl)c4)CC3)n2)cc1` as the compound, how does the EC50 read?
A: 31 µM

Q: Which EC50 does the source give for `Cc1ccc(C)c(N2CCN(C(=O)CCc3nc(-c4ccccc4C(F)(F)F)no3)CC2)c1` here?
A: 30 µM

Q: For `COc1ccc(-c2noc(CCC(=O)N3CCN(c4ccccc4C)CC3)n2)cc1`, which EC50 is on record?
A: 30 µM

Q: How did the EC50 turn out when `COc1ccc(-c2ccc(CCC(=O)N3CCN(c4cc(C)ccc4C)CC3)s2)cc1` was run?
A: 30 µM

Q: How did the EC50 turn out when `COc1ccc(-c2noc(CCC(=O)N3CCN(c4cccc(C)c4C)CC3)n2)cc1` [1-[4-(2,3-dimethylphenyl)-1-piperazinyl]-3-[3-(4-methoxyphenyl)-1,2,4-oxadiazol-5-yl]-1-propanone] was run?
A: 1.56 µM

Q: With `COc1ccc(-c2noc(CCC(=O)N3CCN(c4cc(C)ccc4C)CC3)n2)cc1` [1-[4-(2,5-dimethylphenyl)-1-piperazinyl]-3-[3-(4-methoxyphenyl)-1,2,4-oxadiazol-5-yl]-1-propanone] as the compound, how does the EC50 read?
A: 2.39 µM

Q: `Cc1ccc(-c2noc(CCC(=O)N3CCN(c4cc(C)ccc4C)CC3)n2)cc1` [1-[4-(2,5-dimethylphenyl)-1-piperazinyl]-3-[3-(4-methylphenyl)-1,2,4-oxadiazol-5-yl]-1-propanone] was tested. Which EC50 did it give?
A: 4.39 µM

Q: For `Cc1ccc(C)c(N2CCN(C(=O)CCc3nc(-c4ccc(C(F)(F)F)cc4)no3)CC2)c1` [1-[4-(2,5-dimethylphenyl)-1-piperazinyl]-3-[3-[4-(trifluoromethyl)phenyl]-1,2,4-oxadiazol-5-yl]-1-propanone], which EC50 is on record?
A: 30 µM

Q: Which EC50 does the source give for `COc1ccc(-c2noc(CCCCC(=O)N3CCN(c4cc(C)ccc4C)CC3)n2)cc1` [1-[4-(2,5-dimethylphenyl)-1-piperazinyl]-5-[3-(4-methoxyphenyl)-1,2,4-oxadiazol-5-yl]-1-pentanone] here?
A: 30 µM

Q: For `COc1ccc(-c2noc(CC(=O)N3CCN(c4cc(C)ccc4C)CC3)n2)cc1` [1-[4-(2,5-dimethylphenyl)piperazin-1-yl]-2-[3-(4-methoxyphenyl)-1,2,4-oxadiazol-5-yl]ethanone], which EC50 is on record?
A: 30 µM

Q: Which EC50 does the source give for `Cc1cccc(-c2noc(CCC(=O)N3CCN(c4cc(C)ccc4C)CC3)n2)c1` [1-[4-(2,5-dimethylphenyl)piperazin-1-yl]-3-[3-(3-methylphenyl)-1,2,4-oxadiazol-5-yl]propan-1-one] here?
A: 1.03 µM

Q: With `COc1ccc(-c2cc(CCC(=O)N3CCN(c4cc(C)ccc4C)CC3)on2)cc1` [1-[4-(2,5-dimethylphenyl)piperazin-1-yl]-3-[3-(4-methoxyphenyl)-1,2-oxazol-5-yl]propan-1-one] as the compound, how does the EC50 read?
A: 0.305 µM

Q: For `COc1ccc(-c2coc(CCC(=O)N3CCN(c4cc(C)ccc4C)CC3)n2)cc1` [1-[4-(2,5-dimethylphenyl)piperazin-1-yl]-3-[4-(4-methoxyphenyl)-1,3-oxazol-2-yl]propan-1-one], which EC50 is on record?
A: 30 µM

Q: Which EC50 does the source give for `COc1ccc(-c2ccc(CCC(=O)N3CCN(c4cc(C)ccc4C)CC3)[nH]2)cc1` [1-[4-(2,5-dimethylphenyl)piperazin-1-yl]-3-[5-(4-methoxyphenyl)-1H-pyrrol-2-yl]propan-1-one] here?
A: 30 µM

Q: For `COc1ccc(-c2noc(CCC(=O)N3CCN(c4ccccc4Cl)CC3)n2)cc1` [1-[4-(2-chlorophenyl)piperazin-1-yl]-3-[3-(4-methoxyphenyl)-1,2,4-oxadiazol-5-yl]propan-1-one], which EC50 is on record?
A: 2.28 µM

Q: How did the EC50 turn out when `COc1ccc(-c2noc(CCC(=O)N3CCN(c4ccccc4F)CC3)n2)cc1` [1-[4-(2-fluorophenyl)piperazin-1-yl]-3-[3-(4-methoxyphenyl)-1,2,4-oxadiazol-5-yl]propan-1-one] was run?
A: 0.632 µM

Q: With `COc1ccc(-c2noc(CCC(=O)N3CCN(c4cccc(Br)c4)CC3)n2)cc1` [1-[4-(3-bromophenyl)-1-piperazinyl]-3-[3-(4-methoxyphenyl)-1,2,4-oxadiazol-5-yl]-1-propanone] as the compound, how does the EC50 read?
A: 30 µM

Q: For `COc1ccc(-c2noc(CCC(=O)N3CCN(c4cccc(F)c4)CC3)n2)cc1` [1-[4-(3-fluorophenyl)piperazin-1-yl]-3-[3-(4-methoxyphenyl)-1,2,4-oxadiazol-5-yl]propan-1-one], which EC50 is on record?
A: 30 µM

Q: For `COc1ccc(-c2noc(CCC(=O)N3CCN(c4ccc(Br)cc4)CC3)n2)cc1` [1-[4-(4-bromophenyl)piperazin-1-yl]-3-[3-(4-methoxyphenyl)-1,2,4-oxadiazol-5-yl]propan-1-one], which EC50 is on record?
A: 30 µM

Q: `COc1ccc(-c2noc(CCC(=O)N3CCN(c4cccc(C(F)(F)F)c4)CC3)n2)cc1` [1-{3-[3-(4-methoxyphenyl)-1,2,4-oxadiazol-5-yl]propanoyl}-4-[3-(trifluoromethyl)phenyl]piperazine] was tested. Which EC50 did it give?
A: 30 µM

Q: How did the EC50 turn out when `Cc1ccc(C)c(N2CCN(C(=O)CCc3nc(-c4ccccc4Br)no3)CC2)c1` [3-[3-(2-bromophenyl)-1,2,4-oxadiazol-5-yl]-1-[4-(2,5-dimethylphenyl)-1-piperazinyl]-1-propanone] was run?
A: 4.2 µM

Q: `Cc1ccc(C)c(N2CCN(C(=O)CCc3nc(-c4ccccc4Cl)no3)CC2)c1` [3-[3-(2-chlorophenyl)-1,2,4-oxadiazol-5-yl]-1-[4-(2,5-dimethylphenyl)-1-piperazinyl]-1-propanone] was tested. Which EC50 did it give?
A: 30 µM

Q: For `COc1ccc(-c2noc(CCC(=O)N3CCN(c4ccccc4)CC3)n2)cc1` [3-[3-(4-methoxyphenyl)-1,2,4-oxadiazol-5-yl]-1-(4-phenylpiperazin-1-yl)propan-1-one], which EC50 is on record?
A: 30 µM

Q: How did the EC50 turn out when `COc1ccc(-c2noc(CCC(=O)N3CCN(c4ccccc4OC)CC3)n2)cc1` [3-[3-(4-methoxyphenyl)-1,2,4-oxadiazol-5-yl]-1-[4-(2-methoxyphenyl)-1-piperazinyl]-1-propanone] was run?
A: 30 µM

Q: `COc1ccc(-c2noc(CCC(=O)N3CCN(c4ccc(OC)cc4)CC3)n2)cc1` [3-[3-(4-methoxyphenyl)-1,2,4-oxadiazol-5-yl]-1-[4-(4-methoxyphenyl)piperazin-1-yl]propan-1-one] was tested. Which EC50 did it give?
A: 30 µM

Q: Which EC50 does the source give for `COc1ccc(-c2noc(CCC(=O)N3CCN(c4ccc(C)cc4)CC3)n2)cc1` [3-[3-(4-methoxyphenyl)-1,2,4-oxadiazol-5-yl]-1-[4-(4-methylphenyl)piperazin-1-yl]propan-1-one] here?
A: 30 µM

Q: With `COc1ccc(-c2noc(CCC(=O)N3CCN(c4ccc(C(F)(F)F)cc4)CC3)n2)cc1` [3-[3-(4-methoxyphenyl)-1,2,4-oxadiazol-5-yl]-1-[4-[4-(trifluoromethyl)phenyl]piperazin-1-yl]propan-1-one] as the compound, how does the EC50 read?
A: 30 µM

Q: Which EC50 does the source give for `COc1ccc(-c2noc(CCC(=O)N3CCN(c4cccc(OC)c4)CC3)n2)cc1` [KUC103349N] here?
A: 30 µM

Q: `COc1ccc(-c2noc(CCCC(=O)N3CCN(c4cc(C)ccc4C)CC3)n2)cc1` [KUC103353N] was tested. Which EC50 did it give?
A: 14.4 µM

Q: Which EC50 does the source give for `Cc1ccc(C)c(N2CCN(C(=O)CCc3nc(-c4ccc(F)cc4)no3)CC2)c1` [KUC103364N] here?
A: 0.664 µM

Q: For `Cc1ccc(C)c(N2CCN(C(=O)CCc3nc(-c4cccc(F)c4)no3)CC2)c1` [KUC103366N], which EC50 is on record?
A: 7.85 µM

Q: For `Cc1ccc(C)c(N2CCN(C(=O)CCc3nc(-c4cccc(Br)c4)no3)CC2)c1` [KUC103367N], which EC50 is on record?
A: 3.51 µM

Q: With `COc1ccc(-c2noc(CCC(=O)N3CCN(c4ccccc4Br)CC3)n2)cc1` [KUC103370N] as the compound, how does the EC50 read?
A: 2.24 µM

Q: With `Cc1ccc(C)c(N2CCN(C(=O)CCc3nc(-c4cccc(C(F)(F)F)c4)no3)CC2)c1` [KUC103380N] as the compound, how does the EC50 read?
A: 0.708 µM

Q: Which EC50 does the source give for `COc1ccc(-c2noc(CCC(=O)N3CCN(c4ccc(F)cc4)CC3)n2)cc1` [KUC103398N] here?
A: 30 µM

Q: How did the EC50 turn out when `Cc1ccc(C)c(N2CCN(C(=O)CCc3nc(-c4ccccc4F)no3)CC2)c1` [KUC103401N] was run?
A: 30 µM

Q: For `Cc1ccc(C)c(N2CCN(C(=O)CCc3nc(-c4ccc(N(C)C)cc4)no3)CC2)c1` [KUC103409N], which EC50 is on record?
A: 30 µM

Q: How did the EC50 turn out when `COc1ccc(-c2noc(CCC(=O)N3CCC(c4cc(C)ccc4C)CC3)n2)cc1` [KUC103432N] was run?
A: 1.33 µM

Q: With `COc1ccc(-c2ccc(CCC(=O)N3CCN(c4cc(C)ccc4C)CC3)o2)cc1` [KUC103447N] as the compound, how does the EC50 read?
A: 30 µM

Q: `Cc1ccc(C)c(N2CCN(C(=O)CCc3nc(-c4ccccc4)no3)CC2)c1` [UNM-0000306070] was tested. Which EC50 did it give?
A: 1.16 µM

Q: `COc1ccccc1-c1noc(CCC(=O)N2CCN(c3cc(C)ccc3C)CC2)n1` [UNM-0000306071] was tested. Which EC50 did it give?
A: 30 µM

Q: With `Cc1ccc(C)c(N2CCN(C(=O)CCc3nc(-c4ccc(Br)cc4)no3)CC2)c1` [UNM-0000306072] as the compound, how does the EC50 read?
A: 1.6 µM

Q: `COc1ccc(-c2noc(CCC(=O)N3CCN(c4ccccc4C(F)(F)F)CC3)n2)cc1` [UNM-0000306082] was tested. Which EC50 did it give?
A: 1.95 µM

Q: How did the EC50 turn out when `Cc1ccc(C)c(N2CCN(C(=O)CCc3nc(-c4ccc(Cl)cc4)no3)CC2)c1` [UNM-0000306083] was run?
A: 2.91 µM

Q: How did the EC50 turn out when `Cc1ccc(C)c(N2CCN(C(=O)CCc3nc(-c4cccc(Cl)c4)no3)CC2)c1` [UNM-0000306086] was run?
A: 30 µM

Q: With `COc1ccc(-c2noc(CCC(=O)N3CCN(c4ccc(Cl)cc4)CC3)n2)cc1` [UNM-0000306121] as the compound, how does the EC50 read?
A: 30 µM

Q: With `COc1ccc(-c2noc(CCC(=O)N3CCN(c4cccc(C)c4)CC3)n2)cc1` [UNM-0000306125] as the compound, how does the EC50 read?
A: 30 µM

Q: For `COc1ccc(-c2cccc(CCC(=O)N3CCN(c4cc(C)ccc4C)CC3)c2)cc1` [UNM-0000306127], which EC50 is on record?
A: 30 µM

Q: How did the EC50 turn out when `COc1ccc(-c2cc(CCC(=O)N3CCN(c4cc(C)ccc4C)CC3)[nH]n2)cc1` [UNM-0000306150] was run?
A: 30 µM
